Experiments:
[1] = target: T1, L-type calcium channel (LTCC) (Rattus norvegicus, UniProt P22002); assay: FLIPR calcium mobilization assay for L-type calcium channel; assay type: cell-based; conditions: calcium mobilization in vitro assay; HEK293 cells expressing recombinant rat LTCC subunits (α1c, α2δ, β1), 90 mM KCl
T1 construct: The 6.5 kb cDNA encoding the L-type calcium channel α1c subunit was cloned by PCR amplification from rat heart cDNA; expressed in transfected cells
Method: Recombinant human embryonal kidney cells (HEK293, ATCC) stably transfected with either N-type calcium channel (NTCC) subunits (α1b, α2δ, and (β3) or L-type calcium channel (LTCC) subunits (α1c, α2δ, and β1) were routinely cultured in growth medium consisting of Dulbecco's Modified Eagles Medium containing 10% FBS, 100 U/mL penicillin, 100 μg/mL streptomycin, 4 mM L-glutamine, 500 μg/mL geneticin (G418), 20 μg/mL Blasticidin S (InVivogen, San Diego, Calif.) and 500 μg/mL zeocin (InVivogen).
FLIPR Calcium Mobilization Assay for L-type Calcium Channel. One day prior to performing this assay, HEK293 cells stably expressing recombinant rat L-type calcium channel (LTCC) subunits (α1c, α2δ, and β1) were trypsinized, then seeded on poly-D-lysine-coated 96-well clear-bottom black plates (Becton Dickinson, Franklin Lakes, N.J.) at 75,000 cells/well. On the day of the assay, the plates were washed with LTCC wash buffer (127 mM NaCl, 2 mM MgCl2, 700 μM NaH2PO4, 5 mM CaCl2, 5 mM NaHCO3, 8 mM HEPES, 10 mM glucose, pH 7.4), then loaded with 0.1 mL of LTCC wash buffer containing Fluo-4 (3 μM final concentration, Molecular Probes, Eugene, Oreg.). After 1 hour, the cells were washed with 0.1 mL LTCC wash buffer and resuspended in 0.05 mL LTCC assay buffer (same composition as LTCC wash buffer). Plates were then transferred to a FLIPR^96 for assay. The FLIPR measured basal Fluo-4 fluorescence for 15 seconds, then added 0.05 mL of each compound tested diluted in LTCC assay buffer at final concentrations ranging from about 846 pM to about 17 μM. Fluo-4 fluorescence was then measured for 5 minutes. 0.1 mL KCl agonist dissolved in LTCC assay buffer was then added to the cells to produce a final concentration of 90 mM KCl, and fluorescence was measured for another 45 seconds. Data were collected over the entire time course and analyzed using Excel, Graph Pad Prism, or an in-house regression analysis software.

[2] = target: T2, N-type calcium channel (NTCC) (Homo sapiens, UniProt Q00975); assay: FLIPR calcium mobilization assay for N-type calcium channel; assay type: cell-based; conditions: calcium mobilization in vitro assay; differentiated IMR32 cells, 5 μM nitrendipine, 90 mM KCl
T2 construct: host or cells: IMR32 cells, differentiated with dibutyryl cAMP and bromodeoxyuridine
Method: Cell maintenance and differentiation. Unless noted otherwise, cell culture reagents were purchased from Mediatech of Herndon, Md. IMR32 cells (American Type Culture Collection, ATCC, Manassas, Va.) were routinely cultured in growth medium consisting of minimum essential medium containing 10% fetal bovine serum (FBS, Hyclone, Logan, Utah), 100 U/mL penicillin, 100 μg/mL streptomycin, 2 mM L-glutamine, 1 mM sodium pyruvate, and 1×MEM non-essential amino acids. 80-90% confluent flasks of cells were differentiated using the following differentiation medium: Growth medium plus 1 mM dibutyryl cyclic AMP (Sigma, St. Louis, Mo.), and 2.5 μM bromodeoxyuridine (Sigma). Cells were differentiated for 8 days by replacing differentiation medium every 2-3 days.
FLIPR Calcium Mobilization Assay for N-type Calcium Channel. One day prior to performing this assay, differentiated IMR32 cells were treated with 1× CellStripper, and seeded on poly-D-lysine-coated 96-well clear-bottom black plates (Becton Dickinson, Franklin Lakes, N.J.) at 200,000 cells/well. […] Plates were then transferred to a Fluorimetric Imaging Plate Reader (FLIPR^96, Molecular Devices, Inc., Sunnyvale, Calif.) for assay. The FLIPR measured basal Fluo-4 fluorescence for 315 seconds (i.e., 5 minutes and 15 seconds), then added 0.1 mL KCl agonist dissolved in IMR32 buffer and measured fluorescence for another 45 seconds. Final test compound concentrations on the cells after FLIPR read ranged from about 846 pM to about 17 μM, final nitrendipine concentration was 5 μM, and final KCl concentration was 90 mM. Data were collected over the entire time course and analyzed using Excel, Graph Pad Prism (version 3.02, Graph Pad, San Diego, Calif.), or an in-house non-linear regression analysis software.

T2 sequence (Q00975 whole entry): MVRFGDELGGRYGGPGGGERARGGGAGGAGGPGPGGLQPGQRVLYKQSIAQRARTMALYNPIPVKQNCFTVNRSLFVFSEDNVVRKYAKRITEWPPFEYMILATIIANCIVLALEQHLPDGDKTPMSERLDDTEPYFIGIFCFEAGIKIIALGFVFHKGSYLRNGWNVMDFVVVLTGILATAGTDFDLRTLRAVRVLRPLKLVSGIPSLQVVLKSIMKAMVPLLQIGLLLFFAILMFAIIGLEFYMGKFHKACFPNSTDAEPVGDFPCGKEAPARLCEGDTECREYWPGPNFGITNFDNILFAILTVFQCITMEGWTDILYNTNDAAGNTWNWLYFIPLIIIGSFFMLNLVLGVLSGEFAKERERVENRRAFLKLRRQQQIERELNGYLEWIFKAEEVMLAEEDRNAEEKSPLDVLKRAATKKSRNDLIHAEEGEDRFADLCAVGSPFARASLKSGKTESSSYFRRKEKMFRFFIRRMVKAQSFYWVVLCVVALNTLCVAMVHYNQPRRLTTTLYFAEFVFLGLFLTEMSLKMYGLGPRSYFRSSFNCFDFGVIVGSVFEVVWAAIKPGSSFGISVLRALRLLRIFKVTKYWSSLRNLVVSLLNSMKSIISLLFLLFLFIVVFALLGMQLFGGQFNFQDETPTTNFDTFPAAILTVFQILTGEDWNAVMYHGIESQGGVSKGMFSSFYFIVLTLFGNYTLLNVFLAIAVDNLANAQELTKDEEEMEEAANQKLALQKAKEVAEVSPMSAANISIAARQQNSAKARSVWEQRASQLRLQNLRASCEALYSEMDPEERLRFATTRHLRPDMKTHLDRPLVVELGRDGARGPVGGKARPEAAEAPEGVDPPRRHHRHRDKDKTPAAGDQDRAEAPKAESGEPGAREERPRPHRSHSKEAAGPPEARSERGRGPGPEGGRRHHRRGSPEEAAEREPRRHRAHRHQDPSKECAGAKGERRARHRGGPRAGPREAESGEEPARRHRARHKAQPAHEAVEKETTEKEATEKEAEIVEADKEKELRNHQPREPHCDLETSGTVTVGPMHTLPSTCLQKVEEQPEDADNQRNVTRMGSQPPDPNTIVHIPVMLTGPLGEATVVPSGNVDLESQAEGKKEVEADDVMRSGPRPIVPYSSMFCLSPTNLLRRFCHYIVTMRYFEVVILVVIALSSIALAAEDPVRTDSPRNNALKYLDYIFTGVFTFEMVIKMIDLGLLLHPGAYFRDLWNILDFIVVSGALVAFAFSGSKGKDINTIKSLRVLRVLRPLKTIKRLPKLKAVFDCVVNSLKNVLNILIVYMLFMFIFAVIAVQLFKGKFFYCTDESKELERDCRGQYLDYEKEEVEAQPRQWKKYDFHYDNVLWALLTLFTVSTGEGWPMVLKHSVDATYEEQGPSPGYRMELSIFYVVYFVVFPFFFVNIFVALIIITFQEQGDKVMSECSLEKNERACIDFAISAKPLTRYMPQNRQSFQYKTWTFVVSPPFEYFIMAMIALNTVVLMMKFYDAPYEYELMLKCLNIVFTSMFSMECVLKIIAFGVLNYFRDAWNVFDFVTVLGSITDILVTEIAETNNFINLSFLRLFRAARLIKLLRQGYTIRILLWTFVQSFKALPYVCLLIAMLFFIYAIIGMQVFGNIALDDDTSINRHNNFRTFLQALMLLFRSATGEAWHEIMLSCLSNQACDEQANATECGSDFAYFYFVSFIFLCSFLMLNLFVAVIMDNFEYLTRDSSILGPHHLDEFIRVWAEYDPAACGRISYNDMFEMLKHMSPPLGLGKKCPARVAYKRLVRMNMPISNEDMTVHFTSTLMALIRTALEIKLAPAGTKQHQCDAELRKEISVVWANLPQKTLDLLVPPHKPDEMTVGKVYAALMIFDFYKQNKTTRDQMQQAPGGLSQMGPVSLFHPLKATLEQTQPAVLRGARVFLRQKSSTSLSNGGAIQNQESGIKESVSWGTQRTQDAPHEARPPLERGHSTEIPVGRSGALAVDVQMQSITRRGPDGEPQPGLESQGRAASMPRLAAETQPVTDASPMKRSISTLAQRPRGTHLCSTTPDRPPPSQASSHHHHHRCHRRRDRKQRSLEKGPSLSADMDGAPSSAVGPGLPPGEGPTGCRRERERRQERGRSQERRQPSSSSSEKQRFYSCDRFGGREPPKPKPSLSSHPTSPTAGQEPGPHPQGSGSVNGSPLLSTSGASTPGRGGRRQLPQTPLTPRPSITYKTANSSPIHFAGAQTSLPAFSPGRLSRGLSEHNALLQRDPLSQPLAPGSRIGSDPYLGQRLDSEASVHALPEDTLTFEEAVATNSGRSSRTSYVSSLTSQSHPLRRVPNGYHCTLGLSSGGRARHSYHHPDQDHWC
T2 sequence (P54289 25-956 partner limits assumed): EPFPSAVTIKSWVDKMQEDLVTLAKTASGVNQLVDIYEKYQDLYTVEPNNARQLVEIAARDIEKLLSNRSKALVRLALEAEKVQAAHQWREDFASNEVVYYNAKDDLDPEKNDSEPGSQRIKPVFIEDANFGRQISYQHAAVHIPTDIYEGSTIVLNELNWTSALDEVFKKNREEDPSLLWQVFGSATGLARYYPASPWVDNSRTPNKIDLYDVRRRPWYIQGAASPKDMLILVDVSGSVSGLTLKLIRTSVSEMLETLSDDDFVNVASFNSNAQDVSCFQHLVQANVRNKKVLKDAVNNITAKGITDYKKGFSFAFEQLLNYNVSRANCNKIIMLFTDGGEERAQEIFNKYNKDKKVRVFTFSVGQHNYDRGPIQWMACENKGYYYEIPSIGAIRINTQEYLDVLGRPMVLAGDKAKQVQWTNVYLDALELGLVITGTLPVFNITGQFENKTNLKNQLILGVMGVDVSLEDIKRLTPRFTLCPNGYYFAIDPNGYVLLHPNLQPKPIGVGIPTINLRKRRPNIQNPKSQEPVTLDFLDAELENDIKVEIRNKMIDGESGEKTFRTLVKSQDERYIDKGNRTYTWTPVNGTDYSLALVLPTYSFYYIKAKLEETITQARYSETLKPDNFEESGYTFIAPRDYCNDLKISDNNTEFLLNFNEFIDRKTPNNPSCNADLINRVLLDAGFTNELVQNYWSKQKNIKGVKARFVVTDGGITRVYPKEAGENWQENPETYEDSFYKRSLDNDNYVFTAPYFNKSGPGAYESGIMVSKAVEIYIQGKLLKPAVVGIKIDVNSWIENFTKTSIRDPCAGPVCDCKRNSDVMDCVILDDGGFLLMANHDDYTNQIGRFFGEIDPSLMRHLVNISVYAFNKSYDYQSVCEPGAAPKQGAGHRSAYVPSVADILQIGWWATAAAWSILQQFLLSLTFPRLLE
T2 sequence (P54289 957-1103 partner limits assumed): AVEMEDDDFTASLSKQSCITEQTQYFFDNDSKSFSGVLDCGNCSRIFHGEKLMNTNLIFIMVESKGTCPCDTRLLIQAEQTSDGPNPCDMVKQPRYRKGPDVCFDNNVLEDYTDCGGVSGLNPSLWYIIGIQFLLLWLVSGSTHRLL
T2 sequence (P54284 whole entry partner): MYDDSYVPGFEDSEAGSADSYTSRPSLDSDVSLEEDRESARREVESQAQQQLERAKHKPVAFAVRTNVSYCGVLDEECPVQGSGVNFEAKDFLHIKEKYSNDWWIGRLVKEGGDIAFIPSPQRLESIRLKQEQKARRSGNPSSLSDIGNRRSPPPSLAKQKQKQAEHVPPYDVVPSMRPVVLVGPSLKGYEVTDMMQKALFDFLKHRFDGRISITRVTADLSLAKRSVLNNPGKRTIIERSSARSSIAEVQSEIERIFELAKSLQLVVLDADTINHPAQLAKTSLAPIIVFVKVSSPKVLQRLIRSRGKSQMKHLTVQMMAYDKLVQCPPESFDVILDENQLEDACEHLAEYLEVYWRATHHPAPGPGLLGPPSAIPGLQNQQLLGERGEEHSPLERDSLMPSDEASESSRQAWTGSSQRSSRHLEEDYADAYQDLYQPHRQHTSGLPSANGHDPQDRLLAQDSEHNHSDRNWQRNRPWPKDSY

N#Cc1cccc(C(=NOC2CCN(S(=O)(=O)c3ccc(OC(F)(F)F)cc3)CC2)C2CC2)c1 (racemic) [Example 2, 3-(Cyclopropyl(1-(4-(trifluoromethoxy)phenylsulfonyl)piperidin-4-yloxyimino)methyl)benzonitrile]
IC50 [1]: > 20 µM
IC50 [2]: 0.2 µM

O=S(=O)(c1ccc(OC(F)(F)F)cc1)N1CCC(ON=C(c2ccc(F)cc2)c2ccc(F)cc2)CC1 [Example 3, Bis(4-fluorophenyl)methanone O-1-(4-(trifluoromethoxy)phenylsulfonyl)piperidin-4-yl oxime]
IC50 [1]: > 20 µM
IC50 [2]: 0.1 µM

C/C(=N\OC1CCN(S(=O)(=O)c2ccc(OC(F)(F)F)cc2)CC1)c1cccc(C#N)c1 [Example 4, (E)-3-(1-(1-(4-(Trifluoromethoxy)phenylsulfonyl)piperidin-4-yloxyimino)ethyl)benzonitrile]
IC50 [1]: > 20 µM
IC50 [2]: 0.18 µM
